Experimental data published in US6635242B2, “Broad spectrum microbicidal and spermicidal compositions, devices, and methods” (The Pennsylvania State University, priority 1998, dated 2003).

How the values were obtained:
[1] = tested on: HSV-2 (strain 333); experiment: HSV-2 inactivation assay (plaques on CV-1 monolayers); assay type: cell-based, herpes simplex virus; conditions: 37° C. 10 min, virus then diluted 100 fold
Description: HSV-2 (strain 333) virus stocks were propagated by low multiplicity infection of African Green monkey kidney (CV-1) cells and subsequent preparation of cell-free supernatants from frozen and thawed preparations of lytically infected cultures. Virus titers were determined by assay in CV-1 cell monolayers. Virus stocks were maintained in CV-1 cell culture medium which was Dulbecco's medium supplemented with antibiotics and 10% fetal calf serum.
For inactivation of HSV-2, 39 μl of virus was mixed with 1 μl of a 40×concentrated solution of detergent and then incubated at 37° C. for 10 min. After inactivation, the 40 μl of virus sample was diluted to 4 ml (1:100) using cell culture medium, and 1 ml of the diluted virus was adsorbed onto CV-1 monolayers for 1 hr at 37° C. Following adsorption, monolayers were refed and incubated at 37° C., 5% CO2. Between 20 and 24 hr post infection, monolayers were fixed, stained with crystal violet and plaques counted using a dissecting microscope. The numbers in Table 1 each represent an average of 2 plates.

[2] = tested on: HIV-1 (strain IIIB); experiment: HIV-1 inactivation assay (HeLa-CD4-LTR-β-gal indicator cells); assay type: cell-based; conditions: 10 min 37° C.
Description: One day prior to the assay, HeLa-CD4-LTR-β-gal cells were seeded into 12-well culture dishes at a concentration of 8×10^4 cells per well. A high titer (10^7.17 TCID50/ml) virus stock of HIV-1 (strain IIIB; Advanced Biotechnologies, Inc., Columbia, Md.) was diluted 1:10 with RPMI 1640 supplemented with 10% FBS. To assess viral inactivation by SDS, 78 μl of diluted virus were mixed with 2 μl of detergent solution, and incubated for 10 min at 37° C. After the inactivation period, the virus and detergent were diluted with 720 μl R10 (1:10) supplemented with DEAE dextran (20 μg/ml final concentration). Aliquots of treated virus (300 μl) were then added to duplicate wells of HeLa cells and incubated at 37° C. for 2 hr. Following viral adsorption, 2 ml of fresh media (DMEM supplemented with 10% FBS, 0.1 mg/ml G418, and 0.05 mg/ml hygromycin B) were added to each well. After incubation at 37° C. and 5% CO2 for 48 hr post-infection, cells were fixed and stained for β-galactosidase expression.
It is established that N-9 can inactivate HIV-1. We compared inactivation of HIV-1 by a second non-ionic detergent, C31G, and by SDS. High titer virus stocks of HIV-1 were incubated with either C31G or SDS and then virus was assayed on indicator cells expressing β-gal under the control of the HIV-1 LTR. After 48 hours, cells were stained and the number of cells expressing increased β-gal counted. […].

[3] = tested on: lymphocyte-, macrophage- and dual-tropic strains of HIV-1 (IIIB, BaL, 89.6); experiment: Cell-free HIV-1 inactivation (FIG. 5); assay type: cell-based, human immunodeficiency virus; conditions: HCLB or P4-R5 indicator cells
Description: Cell-free HIV-1 strain IIIB (A) was treated with N-9, C31G, or SDS, and used to infect HCLB cells. Cell-free HIV-1 strains BaL (M tropic) (B) and 89.6 (dual tropic) (C) were treated with N-9, C31G or SDS,and used to infect P4-R5 cells. Assays were conducted. Infectivity following exposure is expressed as a percentage relative to the number of β-gal-positive cells in duplicate wells infected with virus incubated in the absence of a microbicidal compound. Results shown in FIG. 5 are the average cell counts for a total of four wells per concentration in two independent experiments.

[4] = tested on: split thickness grafts of neonatal foreskin; experiment: SDS exposure and viability of human foreskin xenografts; assay type: in vivo; conditions: 0.05% SDS, no virus; immediately and days 1, 5, 11 and 20
Description: A second set of control grafts was exposed only to identical concentrations of SDS and no virus. These grafts were harvested on days 1, 5, 11 and 20 following transplantation in order to follow the viability and growth of the grafts after SDS exposure.
Because of concern about the potential for SDS to kill human epithelium, control experiments were performed in which split thickness grafts of neonatal foreskin were exposed to 0.05% SDS alone and then subsequently grafted. All conditions in this experiment were identical to those used in the HPV 11 infections with treated virus, except that virus was not present. SDS-exposed grafts (2 animals at each time) were harvested, fixed and sectioned immediately after exposure, and on days 1, 5, 11 and 20 after treatment. […] The original split thickness grafts were approximately 1 mm×1 mm×1 mm in size; in addition they were punctured many times with the tip of a needle in order to allow entrance of the HPV 11 and/or the SDS into the epithelial layers. Although it is possible that some epithelial cells may have been damaged or killed during SDS exposure, damage was minimal and epithelial growth in the grafts was normal.

[5] = tested on: Bovine sperm; experiment: Bovine sperm motility following detergent addition; assay type: cell-based; parameters: key to Bovine Sperm Motility Following Detergent Addition: +++: Vigorous swimming; ++/−: Many swimmers/some dead; +/−: Occasional swimmer/most dead; −: All dead
Source text: The following data represent an in vitro experiment to test the efficacy of SDS and other detergents as spermicidal agents. Frozen samples of bull semen were obtained, thawed and placed in a test tube. Aliquots were taken out and put in a separate test tube where they were mixed with detergent (SDS, C31G, N-9 or a mixture of SDS and N-9) to a final percent as listed in Tables 8 and 9 below. After mixing, the samples were immediately placed on a microscope slide and visually examined for sperm movement. The experiment was conducted one sample at a time so that the visual examination was conducted immediately after addition of detergent to the sample. As a result, indications in the table of complete inactivation indicate virtually instantaneous inactivation of the sperm. […] Occasional swimmers means very few, on the order of approximately 1% of the population of sperm present in the sample, indicating approximately 99% of the sperm were inactivated by the detergent.

SMILES: CCCCCCCCCCCCOS(=O)(=O)[O-].[Na+] [SDS, Sodium dodecyl sulfate]
- Plaques/Plate (5 experiments) ([1]; 1 × 10^−1 % SDS during treatment): 0/0/0/0/0
- Plaques/Plate (5 experiments) ([1]; 1.25 × 10^−2 % SDS during treatment): 0/0/0/0/0
- Plaques/Plate (5 experiments) ([1]; 2.5 × 10^−2 % SDS during treatment): 0/0/0/0/0
- Plaques/Plate (5 experiments) ([1]; 2.5 × 10^−3 % SDS during treatment): 28/54/322/145/104
- Plaques/Plate (5 experiments) ([1]; 5 × 10^−2 % SDS during treatment): 0/0/0/0/0
- concentration (as low as) giving total inactivation of HIV-1 [2]: 0.025%
- inactivation of cell-free HIV-1 strains IIIB, BaL and 89.6 (infectivity, β-gal-positive cells) [3]: inactivated
- viability of grafts exposed to SDS alone (histology) [4]: fully viable epithelium on all days and no apparent necrosis
- Bovine Sperm Motility Following Detergent Addition ([5]; Table 8, 0.0125% detergent): +/−
- timing of sperm inactivation ([5]; Table 8, 0.0125% detergent, delayed = approximately 10 minutes): (delayed)
- Bovine Sperm Motility Following Detergent Addition ([5]; Table 8, 0.025% detergent): −
- Bovine Sperm Motility Following Detergent Addition ([5]; Table 8, 0.5% detergent): −
- Bovine Sperm Motility Following Detergent Addition ([5]; Table 8, 1% detergent): −
- Bovine Sperm Motility Following Detergent Addition ([5]; Table 8, 2% detergent): −
- Bovine Sperm Motility Following Detergent Addition ([5]; Table 9, 0.125% detergent): ++/−
- Bovine Sperm Motility Following Detergent Addition ([5]; Table 9, 0.25% detergent): ++/−
- Bovine Sperm Motility Following Detergent Addition ([5]; Table 9, 0.5% detergent): ++/−
- Bovine Sperm Motility Following Detergent Addition ([5]; Table 9, 1% detergent): ++/−
- Bovine Sperm Motility Following Detergent Addition ([5]; Table 9, 2% detergent): +/−
